From PMC2603307 (Chemistry & biology, 2008) come the findings set out here.

The experiment deals with T1, E. coli GCH I (FolE, B2153) (Escherichia coli, UniProt P0A6T5).
T1 sequence (P0A6T5 2-222): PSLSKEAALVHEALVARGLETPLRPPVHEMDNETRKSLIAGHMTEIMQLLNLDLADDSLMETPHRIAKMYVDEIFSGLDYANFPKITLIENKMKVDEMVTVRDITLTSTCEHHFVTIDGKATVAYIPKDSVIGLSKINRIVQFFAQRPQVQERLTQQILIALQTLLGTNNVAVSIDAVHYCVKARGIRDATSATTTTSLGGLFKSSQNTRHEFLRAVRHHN
In words: LC-MS of product. The experiment is classed as biochemical. The note with it: 20 mM Tris-SO4 pH 8.0, 2 mM dithiothreitol, 0.1 M KCl, 100 uM GTP, 120 min, ambient temperature.

In the case of `Nc1nc2c(ncn2[C@@H]2O[C@H](COP(=O)(O)OP(=O)(O)OP(=O)(O)O)[C@@H](O)[C@H]2O)c(=O)[nH]1` [GTP], the LC-MS of product result is given as “product produced by ToyD with that produced with E. coli GCH I (FolE, B2153)”.
